Each structure is given as a SMILES string. Values after ≈ are worked out from the molar mass of the structure shown. Read-outs that look alike come from different tables or passages of the source.

Series [1] deals with Giardia lamblia. Conditions: humans; background, The New York Times, June 10, 1980; cited from earlier work.
The conditions of series [2]: cited from earlier work.
Series [3] has as its system Giardia lamblia. Briefly: In vitro anti-Giardia lamblia activity (viable organisms counted by hemacytometer, 50% inhibition of growth). It counts as cell-based. Conditions: Giardia duodenalis, read-out: Anti-G. lamblia ED50. The protocol:
About 1.0-2.0 ml of a nutrient medium, for example, the modified Diamond's TPS medium at pH 7.05, together with about 10% by volume of heat-inactiviated serum and about 1% by volume of antibiotic-antimycotic solution is placed in each well of a multiwell plate. To this mixture, an aliquot of a suspension of G. lamblia cells containing about 10^6 organisms is added. Subsequently, each well is inoculated with a known concentration of one of the active compounds. The multiwell plate containing the individual culture samples is incubated under anaerobic conditions at about 37° C. for about 16-24 hrs. The number of viable cells remaining in each well are then counted, such as with a hemacytometer. […]
In each well of a multiwell plate is placed 1.4 ml of media mix containing Diamond's TPS medium (see Table 2) at pH 7.05, 10% by volume of heat-inactivated fetal bovine serum, and 1% by volume of an antibiotic-antimycotic solution (see Table 3). […] The cells are resuspended in a small volume of the Diamond's medium, counted, and each well inoculated with approximately 10^6 organisms. […] After 24 hours of incubation each well is mixed and counted for viable organisms using a hemacytometer. The percentage of survival is determined by comparing the treated wells to controls treated with dimethylsulfoxide. […]

Series [4] concerns T. foetus. As to the kind of experiment: In vitro anti-Trichomonas foetus activity (50% inhibition of growth). It is filed as cell-based, Trichomonas foetus KV1. Particulars: for IC50: Tritrichomonas foetus, read-out: Anti-T. foetus ED50. As for the experimental part:
The activity of these compounds against Giardia lamblia and Trichomonas foetus are shown by the following test:
About 1.0-2.0 ml of a nutrient medium, for example, the modified Diamond's TPS medium at pH 7.05, together with about 10% by volume of heat-inactiviated serum and about 1% by volume of antibiotic-antimycotic solution is placed in each well of a multiwell plate. To this mixture, an aliquot of a suspension of G. lamblia cells containing about 10^6 organisms is added. Subsequently, each well is inoculated with a known concentration of one of the active compounds. The multiwell plate containing the individual culture samples is incubated under anaerobic conditions at about 37° C. for about 16-24 hrs. The number of viable cells remaining in each well are then counted, such as with a hemacytometer. The percentage of survival is determined by comparison with controls inoculated with DMSO (dimethylsulfoxide) and the effective concentration (in parts per million) for 50% inhibition of growth (ED50) is determined. It is established that the lower the number of the value of ED50, the higher the activity of the active compound.
In each well of a multiwell plate is placed 1.4 ml of media mix containing Diamond's TPS medium (see Table 2) at pH 7.05, 10% by volume of heat-inactivated fetal bovine serum, and 1% by volume of an antibiotic-antimycotic solution (see Table 3). A suspension of Giardia lamblia is centrifuged at 2,500 xg. for 6 minutes. The cells are resuspended in a small volume of the Diamond's medium, counted, and each well inoculated with approximately 10^6 organisms. A stock solution of fluorouracil is made at a concentration of 150 μg/ml. The wells are then inoculated with various concentrations of the drug. The plates are incubated for 24 hours at 37° C. in an anaerobic Gas Pak jar. After 24 hours of incubation each well is mixed and counted for viable organisms using a hemacytometer. The percentage of survival is determined by comparing the treated wells to controls treated with dimethylsulfoxide. […]

Series [5] deals with T. vaginalis. Briefly: Anti-T. vaginalis activity. It counts as cell-based, Trichomonas vaginalis. Particulars: procedure of Example 2; refers to Table 1.

As to `CCN(CC)CCCC(C)Nc1c2ccc(Cl)cc2nc2ccc(OC)cc12` (stereo not drawn) [Atabrine], the “treatment of giardiasis infection” value in series [1] was “successfully treated”. In addition, the adverse side effects result in series [2] (in vivo) is given as “known to cause adverse side effects”.

On to `Cc1ncc([N+](=O)[O-])n1CCO` [Flagyl, metronidazole], for which the “treatment of giardiasis infection” value in series [1] is on record as “successfully treated”. Further, the adverse side effects result in series [2] (in vivo) is on record as “known to cause adverse side effects”.

For the compound `[O-][n+]1ccnc(O)c1` [emimycin, 2-hydroxypyrazine-4-oxide], the IC50 in series [3] (in vitro, effective concentration for 50% inhibition of growth, about 10^6 organisms per well, 37° C., anaerobic, 16-24 hrs (Example 1: 24 hours), controls with DMSO) was 22 µg/mL (≈ 196 µM); in series [4] (in vitro, 50% inhibition of growth, T. foetus KV1 in Example 2, 37° C., 24 hours) it was less than 1 µg/mL. The “anti-T. vaginalis activity (in words)” value in series [5] is “active anti-T. vaginalis agents”.

In the case of `O=c1[nH]cc(F)c(=O)[nH]1` [fluorouracil, 5-fluoro-2,4-(1H,3H)pyrimidenedione], the IC50 in series [3] amounted to 100 µg/mL (≈ 769 µM); in series [4] (24 h), 3 µg/mL (≈ 23.1 µM). The “anti-T. foetus activity (in words)” value in series [4] (in vitro, T. foetus KV1, 37° C., 24 hours) is reported as “effective anti-T. foetus agent”.

Take `O=C1OCCN1N=Cc1ccc([N+](=O)[O-])o1` [furazolidione]: the “treatment of giardiasis infection” value in series [1] was “successfully treated”. In addition, in series [2] (humans, background, The New York Times, June 10, 1980), the adverse side effects result was “known to cause adverse side effects”.

These data come from patent US4424220A, “Treatment of giardiasis and trichomoniasis” (priority 1982, dated 1984).
